Data from publication PMC7363723, “Fungal Kti12 proteins display unusual linker regions and unique ATPase p-loops” (Current Genetics, 2020).

Columns and labels:
Format in all cases: binding
CtKti12 [1] = target: T1, CtKti12 (Thermochaetoides thermophila, UniProt G0SHI1); test: thermal shift assay (SYPRO Orange); conditions: 1 mM ATP, 2 mM MgCl2, 20 mM Tris-HCl pH 7.5, 150 mM NaCl, 2 mM DTT; 0.6 °C/min
T1 construct: gene CTHT_0070100; full-length, codon-optimized ORF in pET24d (NcoI/XhoI), purified from bacteria; PDB 6QP0 (earlier work) covers the ATPase domain only
T1 sequence (G0SHI1 1-378): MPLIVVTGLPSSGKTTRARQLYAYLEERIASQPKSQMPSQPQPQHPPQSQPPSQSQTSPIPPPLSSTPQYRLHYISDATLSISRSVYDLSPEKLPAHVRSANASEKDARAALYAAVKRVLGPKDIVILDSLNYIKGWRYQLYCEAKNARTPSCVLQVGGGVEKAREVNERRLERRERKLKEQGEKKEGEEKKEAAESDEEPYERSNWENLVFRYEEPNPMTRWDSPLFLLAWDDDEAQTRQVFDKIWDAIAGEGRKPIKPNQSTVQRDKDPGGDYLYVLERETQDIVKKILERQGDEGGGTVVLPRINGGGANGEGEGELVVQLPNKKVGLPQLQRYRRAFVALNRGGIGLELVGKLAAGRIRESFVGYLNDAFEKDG

CtKti12 [2] = target: T2, CtKti12 (Thermochaetoides thermophila, UniProt G0SHI1, K14A); test: fluorescence polarization, one-site fit
T2 construct: gene CTHT_0070100; full-length, codon-optimized ORF in pET24d (NcoI/XhoI), purified from bacteria; PDB 6QP0 (earlier work) covers the ATPase domain only

CtKti12 [3] = target: T3, CtKti12 (Thermochaetoides thermophila, UniProt G0SHI1, K14L); test: fluorescence polarization, one-site fit
T3 construct: gene CTHT_0070100; full-length, codon-optimized ORF in pET24d (NcoI/XhoI), purified from bacteria; PDB 6QP0 (earlier work) covers the ATPase domain only

CtKti12 [4] = target: T4, CtKti12 (Thermochaetoides thermophila, UniProt G0SHI1, K14V); test: fluorescence polarization, one-site fit
T4 construct: gene CTHT_0070100; full-length, codon-optimized ORF in pET24d (NcoI/XhoI), purified from bacteria; PDB 6QP0 (earlier work) covers the ATPase domain only

CtKti12 [5] = target: T1, CtKti12; test: fluorescence polarization, one-site fit

T4 sequence (G0SHI1 entry or part of it K14V): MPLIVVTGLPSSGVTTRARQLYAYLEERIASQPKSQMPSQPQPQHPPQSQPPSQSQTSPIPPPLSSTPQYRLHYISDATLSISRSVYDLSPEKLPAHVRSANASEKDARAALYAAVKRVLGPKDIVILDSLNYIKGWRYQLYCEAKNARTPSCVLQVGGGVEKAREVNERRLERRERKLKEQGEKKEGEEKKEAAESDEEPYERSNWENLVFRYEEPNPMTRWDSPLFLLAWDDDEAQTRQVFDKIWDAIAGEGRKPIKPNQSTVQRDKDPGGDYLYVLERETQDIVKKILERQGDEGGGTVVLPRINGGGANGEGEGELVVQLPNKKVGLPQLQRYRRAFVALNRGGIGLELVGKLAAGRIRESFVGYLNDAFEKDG
T3 sequence (G0SHI1 entry or part of it K14L): as the sequence (G0SHI1 entry or part of it K14V) above, with V14L counted along it
T2 sequence (G0SHI1 entry or part of it K14A): as the sequence (G0SHI1 entry or part of it K14V) above, with V14A counted along it

melting point without ATP to with ATP (CtKti12 [1]) [°C] | Kd (CtKti12 [2]) [µM] | Kd (CtKti12 [3]) [µM] | Kd (CtKti12 [4]) [µM] | Kd (CtKti12 [5]) [µM] | Compound
46.0 to 50.0 |  |  |  |  | Nc1ncnc2c1ncn2[C@@H]1O[C@H](COP(=O)(O)OP(=O)(O)OP(=O)(O)O)[C@@H](O)[C@H]1O [ATP]
 | > 100 | 25 ± 2.4 | > 100 | 1.5 ± 0.2 | CNc1ccccc1C(=O)O[C@H]1[C@@H](O)[C@H](n2cnc3c(N)ncnc32)O[C@@H]1CO[P@@](=O)(O)O[P@](=O)(O)OP(=O)(O)O [MANT-ATP]
